Measured values as given in patent publication US20040192764A1 (H. Lundbeck A/S, priority 2001, published 2004).

Experiment: pharmacological and clinical studies (potency versus racemate, influence of R-citalopram)
Type: in vivo
Conditions: presence of R-citalopram
From the text: This may be shown in functional in-vivo pharmacological models and studies of 5-HT-reuptake effect and or in behaviour models, for example depression models.

SMILES: CN(C)CCC[C@]1(c2ccc(F)cc2)OCc2cc(C#N)ccc21 [R-citalopram]
- influence on the effect of escitalopram: negative impact on the effect of escitalopram
